According to patent publication US20030125325A1, “Pyrazolyl benzyl thioethers” (priority 2001, published 2003):

How the values were obtained:
[1] = logP determination by HPLC (EEC directive 79/831 Annex V. A8); type: physicochemical; settings: gradient method, acetonitrile/0.1% aqueous phosphoric acid, preparation examples
Method: The logP values were determined in accordance with EEC directive 79/831 Annex V. A8 by HPLC (gradient method, acetonitrile/0.1% aqueous phosphoric acid) […]

[2] = test system: Puccinia recondita; test: Puccinia test (wheat)/protective; type: in vivo; settings: protective, application rate 100 g/ha, evaluation 10 days after inoculation, 0% = control, 100% = no infection
Method: Puccinia test (wheat)/protective
To produce a suitable preparation of active compound, 1 part by weight of active compound is mixed with the stated amounts of solvent and emulsifier, and the concentrate is diluted with water to the desired concentration.
To test for protective activity, young plants are sprayed with the preparation of active compound at the stated application rate. After the spray coating has dried, the plants are sprayed with a conidia suspension of Puccinia recondita. The plants remain in an incubation cabin at 20° C. and 100% relative atmospheric humidity for 48 hours.
The plants are then placed in a greenhouse at a temperature of about 20° C. and a relative atmospheric humidity of 80% to promote the development of rust pustules.
Evaluation is carried out 10 days after the inoculation. 0% means an efficacy which corresponds to that of the control, whereas an efficacy of 100% means that no infection is observed.

| Compound | chromatographic logP [1] | efficacy [2] [%] |
| --- | --- | --- |
| CON=C(C1=NOCCO1)c1ccccc1CSc1ccn(-c2ccc(Cl)cc2)n1 [Example 1, [2-({[1-(4-chlorophenyl)-1H-pyrazol-3-yl]sulphanyl}methyl)phenyl](5,6-dihydro-1,4,2-dioxazin-3-yl)methanone O-methyloxime] | 3.69 | ≥ 98 |
| CON=C(C(=O)OC)c1ccccc1CSc1ccn(-c2ccc(Br)cc2)n1 [Example 2, methyl [2-({[1-(4-bromophenyl)-1H-pyrazol-3-yl]sulphanyl}methyl)phenyl](methoxyimino)acetate] | 4.07 | – |
| CNC(=O)C(=NOC)c1ccccc1CSc1ccn(-c2ccc(Br)cc2)n1 [Example 3, N-methyl-[2-( {[1-(4-bromophenyl)-1H-pyrazol-3-yl]sulphanyl}methyl)phenyl]-(methoxyimino)acetamide] | 3.5 | – |
